This assay has as its target T1, c-Raf (Homo sapiens, UniProt P04049).
T1 construct: made in house; host or cells: baculovirus Hi5 insect cells, co-expressed with v-src-FLAG
The assay is described as follows: In vitro kinase assay: c-Raf HTRF assay with 6H-MEK as substrate. To be noted: 6H-MEK substrate, dose response. Type of assay: biochemical. As for the experimental part:
In vitro enzyme activity was determined with c-Raf using a HTRF assay with 6H-MEK as substrate (Dose Response).
The assay utilizes 6H-MEK as the substrate. Upon c-Raf phosphorylation, phosphorylated 6H-MEK is detected with rabbit anti-phospho-MEK1/2, Eu-labeled anti-rabbit, and APC-labeled anti-6H antibodies.
c-Raf enzyme was cloned human c-Raf with EE-tag and was phosphorylated (co-expressed with v-src-FLAG in baculovirus Hi5 cells), 0.2 mg/mL (2.74 μM assuming a molecular weight of 73 kD) and stored at −15° C. Wild-type full-length 6H-MEK was used as substrate, 4.94 mg/mL (154.4 μM assuming a MW of 32 kD) and stored at −15° C.
The following antibodies were used in the detection step: Rabbit α-P-(Ser 217/221)-MEK-1/2 Ab (from Cell Signaling, Cat. # 9121S, Lot 4); Eu-α-rabbit IgG (from Wallac, Cat. # AD0083, Lot 107557, labeling date Jun. 21, 2002, 8 Eu/protein, 580 μg/mL, 3.63 μM); α-6H-SureLight-APC (from Martek, Cat. #AD0059H, Lot E011ABO1, 3.15 μM).
Assays were read with Envision from PerkinElmer, HTRF reading mode with 412 mirrors.
Assays were performed with Costar 384 all-black plates, 120 μL (Cat. # 3710).
Test compounds were dispensed in Weidman 384 polypropylene plates (REMP).
Assay Procedure: • Prepare Kinase Assay Buffer (KAB): 50 mM HEPES (HyClone) pH7, 10 mM MgCl2, 1 mM DTT, 0.1 mM […], and 0.2 mg/mL BSA. • Prepare 6H-MEK (150 nM) in KAB. Add 40 μL/well to a Weidman plate. • Prepare ATP (66 μM) in KAB. • Prepare c-Raf (60 nM) in KAB. Add 25 μL/well to a Weidman plate. • Dilute compounds to 2.4 mM in DMSO. Perform 10-point 3× dilution in DMSO. • Withdraw 2.5 ul/well of DMSO solution and add to 27.5 μL/well ATP solution in (3). • Add 12 μL/well 6H-MEK to the assay plate on the Cybiwell, followed by 6 μL/well of solution in (5) and 6 μL/well of solution in (4) for a DMSO concentration of 2.1% during MEK phosphorylation. • Incubate at 37° C. for 30 minutes. • Prepare rabbit α-P-(Ser 217/221)-MEK-1/2 Ab (1:225 from stock) in AB1: 50 mM HEPES pH7, 0.2 mg/mL BSA, and 53 mM EDTA. • To stop reaction, add 6 μL/well of solution from (8) to the assay plate and incubate at 37° C. for 30 minutes. • Prepare Eu-α-rabbit IgG (9 nM) and α-6H-SureLight-APC (120 nM) in AB2: 50 mM HEPES pH7 and 0.2 mg/mL BSA. • Add 6 μL/well of solution from (10) to the assay plate. • For determining the spectrum cross talk factor, prepare 2 samples following steps (6) to (9). For the blank sample, add 6 μL/well of AB2. For the cross talk factor sample, add 6 μL/well of Eu-anti rabbit IgG (9 nM). • Incubate at 37° C. for 1 hour.
Read HTRF signals at 615 nm and 665 nm on the Envision. Normalize HTRF signals after spectrum cross-talk correction.

T1 sequence (P04049 whole entry): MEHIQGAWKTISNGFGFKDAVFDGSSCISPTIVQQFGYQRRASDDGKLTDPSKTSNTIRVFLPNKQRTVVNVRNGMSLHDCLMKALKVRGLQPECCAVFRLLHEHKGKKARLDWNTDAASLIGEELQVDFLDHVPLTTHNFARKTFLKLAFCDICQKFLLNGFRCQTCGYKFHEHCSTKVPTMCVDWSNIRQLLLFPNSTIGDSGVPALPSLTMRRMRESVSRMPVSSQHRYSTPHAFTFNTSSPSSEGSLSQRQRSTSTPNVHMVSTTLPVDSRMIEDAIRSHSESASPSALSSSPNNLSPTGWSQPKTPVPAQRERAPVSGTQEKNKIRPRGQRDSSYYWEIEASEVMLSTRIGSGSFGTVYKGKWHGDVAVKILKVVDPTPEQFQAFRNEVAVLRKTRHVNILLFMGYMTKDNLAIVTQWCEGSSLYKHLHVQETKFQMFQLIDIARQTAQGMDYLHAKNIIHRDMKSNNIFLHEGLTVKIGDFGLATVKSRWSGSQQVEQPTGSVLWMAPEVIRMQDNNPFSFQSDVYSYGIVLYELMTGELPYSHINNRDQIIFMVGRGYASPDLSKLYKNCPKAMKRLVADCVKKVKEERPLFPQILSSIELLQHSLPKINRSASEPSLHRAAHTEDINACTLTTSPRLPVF

Turning to `CCOC(=O)c1cnc(N)c2c(COc3cccc(OCc4ccccc4)c3)csc12` [Example 2, 4-Amino-3-(3-benzyloxy-phenoxymethyl)-thieno[3,2-c]pyridine-7-carboxylic acid ethyl ester], the IC50 was found to be 836 nM.

`Nc1ncc(C(=O)NCCO)c2scc(COc3cccc(OCc4cccc(Cl)c4)c3)c12` [Example 7, 4-Amino-3-[3-(3-chloro-benzyloxy)-phenoxymethyl]-thieno[3,2-c]pyridine-7-carboxylic acid (2-hydroxy-ethyl)-amide] had a half-inhibitory concentration (IC50) of 22 nM.

In the case of `CCOC(=O)c1cnc(N)c2c(COc3cccc(OCc4cccc(OC)c4)c3)csc12` [Example 14, 4-Amino-3-[3-(3-methoxy-benzyloxy)-phenoxymethyl]-thieno[3,2-c]pyridine-7-carboxylic acid ethyl ester], the midpoint of inhibition, the IC50, lay at 2020 nM.

Take `CCOC(=O)c1cnc(N)c2c(COc3cccc(OCc4ccc(OC)c(C(F)(F)F)c4)c3)csc12` [Example 18, 4-Amino-3-[3-(4-methoxy-3-trifluoromethyl-benzyloxy)-phenoxymethyl]-thieno[3,2-c]pyridine-7-carboxylic acid ethyl ester]: half-maximal inhibition (IC50) required 324 nM.

Source of the values: patent US20070060607A1, “4-amino-thieno[3,2-c] pyridine-7-carboxylic acid derivatives” (priority 2005, published 2007).
